Laboratory results as given in patent publication US20100068793A1, “DEVICES AND METHODS FOR PRODUCTION OF CELL AGGREGATES” (priority 2007, published 2010).
“Also recorded” adds a separate entry of the source.

Assays:
hESC [1] = assay: Aggregate formation from hESC cultured on Matrigel after BMP pre-differentiation; type: cell-based, human; conditions: 50 ng/mL BMP4 pre-differentiation, control without BMP4 formed no aggregates
Method: Prepare a single-cell suspension by treating the hESC culture with TrypIE for 5 minutes, and washing the cells off with X-Vivo10
Count cells, spin down and re-suspend to 1 million cells/mL in X-Vivo or other medium of interest. Cells may all derive from a single culture, or cells from different sources may be combined.

hESC [2] = assay: Forced aggregation of hESC with or without ROCK inhibitor Y-27632; type: cell-based, human
Method: d) form aggregates in the presence of 10 μM Y27632 5. Suspend cells in X-vivo10 or other medium of interest at a concentration appropriate to the desired EB size and plate format (e.g. to form aggregates from 10,000 cells in 100 μL medium each in 96-well plates, suspend 1 million cells in 10 mL; for aggregates from 2,000 cells in 25 μL medium each in 384-well plates, suspend 0.8 million cells in 10 mL. NB multichannel pipettes or automated liquid handling systems often require a minimum “dead volume”, thus it may be necessary to make 10-20% additional volume of suspension depending on the specifics of the equipment employed. 6. Dispense the cell suspension into the well plates prepared in step 2. 7. Centrifuge for 5 minutes at 240×g 8. Incubate overnight at 37 degrees, 5% CO2 in a standard tissue culture incubator. 9. Recover EBs by pipetting using large-bore or cut-off pipette tips or by inverted centrifugation in the device described and illustrated in FIG. 1 or 2 for 1 minute at 20×g hESC were cultured on Matrigel in conditioned medium or with 48 hours of pre-differentiation in serum-containing medium, and were subjected to the forced aggregation protocol at 2,000 cells per well with or without addition of 10 μM of the ROCK inhibitor Y-27632. […] In the absence of both, no aggregates were formed (N.D.—size not determined). […]

BMP4: bone morphogenetic protein growth factor used for pre-differentiation
stable aggregate formation after BMP4 pre-differentiation (hESC [1]): Aggregates formed from the pre-differentiated population

C[C@@H](N)[C@H]1CC[C@H](C(=O)Nc2ccncc2)CC1 [Y-27632]
aggregate size and symmetry (hESC [2]; 10 μM Y-27632, hESC cultured on Matrigel, 2,000 cells per well, with or without 48 hours pre-differentiation in serum-containing medium): size and symmetry of aggregates are improved; also recorded: substantially increased aggregate size and symmetry
aggregate formation / stability (SISO-aggregates, cross-sectional area) (hESC [2]; 10 μM Y-27632 added to cell suspension immediately prior to dispensing, hESC on Matrigel in MEF-conditioned medium, with or without 48 hours predifferentiation in 20% serum): sizeable aggregates resulted
